Laboratory results published in patent publication EP0091755A1, “Penicillin derivatives, a process for their preparation and compositions containing them” (BEECHAM GROUP PLC, priority 1982, dated 1983).
Read-outs that look alike come from different tables or passages of the source.

Key:
Assay type in all cases: cell-based
E Coli JT 425 = assay: Antibacterial activity (MIC) against E Coli JT 425
Ps aeruginosa 10662 = assay: Antibacterial activity (MIC) against Ps aeruginosa 10662
Klebsiella aerogenes A = assay: Antibacterial activity (MIC) against Klebsiella aerogenes A
P mirabilis C977 = assay: Antibacterial activity (MIC) against P mirabilis C977
Staph. aureus Oxford = assay: Antibacterial activity (MIC) against Staph. aureus Oxford; conditions: Staphylococcus aureus
[1] = Escherichia coli, E. Coli JT 425, table, read-out: Antibacterial activities (MIC)
[2] = Pseudomonas aeruginosa, Ps. Aeruginosa 10662, table, read-out: Antibacterial activities (MIC)
[3] = Klebsiella Aerogenes A, table, read-out: Antibacterial activities (MIC)
[4] = Proteus mirabilis, P. Mirabilis C977, table, read-out: Antibacterial activities (MIC)
[5] = Staph Aureus Oxford, table, read-out: Antibacterial activities (MIC)
[6] = Ps aeruginosa 10662, example, read-out: Antibacterial activity (MIC)
[7] = Klebsiella aerogenes A, example, read-out: Antibacterial activity (MIC)
[8] = P mirabilis C977, example, read-out: Antibacterial activity (MIC)
[9] = Staph. aureus Oxford, example, read-out: Antibacterial activity (MIC)

Row | Structure (SMILES) | MIC (E Coli JT 425; [1]) [mg/L] | MIC (Ps aeruginosa 10662; [2]) [mg/L] | MIC (Klebsiella aerogenes A; [3]) [mg/L] | MIC (P mirabilis C977; [4]) [mg/L] | MIC (Staph. aureus Oxford; [5]) [mg/L] | MIC (E Coli JT 425; E Coli JT 425, example, read-out: Antibacterial activity (MIC)) [mg/L] | MIC (Ps aeruginosa 10662; [6]) [mg/L] | MIC (Klebsiella aerogenes A; [7]) [mg/L] | MIC (P mirabilis C977; [8]) [mg/L] | MIC (Staph. aureus Oxford; [9]) [mg/L]
1 | CO[C@@]1(NC(=O)C(NC(=O)Nc2cnc(Nc3ccc(S(N)(=O)=O)cc3)nc2O)c2ccco2)C(=O)N2[C@@H](C(=O)O)C(C)(C)S[C@@H]21 (stereo partly drawn) [Example 6, Sodium 6,β-[D,L-2-[3-[2-(4-aminosulphonylphenylamino), -4-hydroxypyrimidin-5-yl]-ureido]-2-(furan-2-yl)acetamido]-6,a-methoxy penicillanate] | 8 | 32 | 0.12 | 2 | 16 | – | – | – | – | –
2 | CO[C@@]1(NC(=O)[C@@H](NC(=O)Nc2cnc(Nc3ccc(S(N)(=O)=O)cc3)nc2O)c2cccs2)C(=O)N2[C@@H](C(=O)O)C(C)(C)S[C@@H]21 [Example 5, Sodium 6,β-[L-2-[3-[2-(4 aminosulphonylphenylamino)-4-hydroxy-pyrimidin-5-yl]ureido]-2-thien-2-y-)acetamido]-6α methoxypenicillanate] | 2.5 | 50 | 1 | 2.5 | 25 | – | – | – | – | –
3 | CO[C@@]1(NC(=O)C(NC(=O)Nc2cnc(Nc3ccc(S(N)(=O)=O)cc3)nc2O)c2ccc(OC(C)=O)c(OC(C)=O)c2)C(=O)N2[C@@H](C(=O)O)C(C)(C)S[C@@H]21 (stereo partly drawn) [Example 9, Sodium 6,B-[D,L-2-[3-[2-(4-aminosulphonylphenylamino)-4-hydroxypyrimidin-5-yl]ureido]-2-(3,4-diacetoxyphenyl)acetamido]-6,a-methoxypenicillanate] | 1 | 1 | < 0.06 | 2 | < 128 | – | – | – | – | –
4 | CO[C@@]1(NC(=O)[C@H](NC(=O)Nc2cnc(Nc3ccc(S(N)(=O)=O)cc3)nc2O)c2cccs2)C(=O)N2[C@@H](C(=O)O)C(C)(C)S[C@@H]21 [Example 4, Sodium 6β-[D-2-[3-[2-(4-aminosulphonylphenylamino)-4-hydroxypyrimidin-5-yl]ureido]-2-(thien-2-yl)acetamido]-6,a-methoxypenicillanate.] | 1 | 10 | 0.2 | 1 | 10 | – | – | – | – | –
5 | CO[C@@]1(NC(=O)[C@H](NC(=O)Nc2cnc(Nc3ccc(S(N)(=O)=O)cc3)nc2O)c2ccc(O)cc2)C(=O)N2[C@@H](C(=O)O)C(C)(C)S[C@@H]21 [Example 3, Sodium 6,β-[D-2-[3-[2-(4-aminosulphonylphenylamino)-4-hydroxypyrimidin-5-yl]ureido]-2-(4-hydroxyphenyl)acetamido]-6,a-methoxypenicillanate] | – | – | – | – | – | 2.5 | 25 | 0.2 | 1.25 | 50
6 | CO[C@@]1(NC(=O)[C@H](NC(=O)Nc2cnc(Nc3ccc(S(N)(=O)=O)cc3)nc2O)c2ccccc2)C(=O)N2[C@@H](C(=O)O)C(C)(C)S[C@@H]21 [Example 1, Sodium 6,β-(D-2-[3-[2-(4-aminosulphonylphenylamino)-4-hydroxypyrimidin-5-yl]ureido]-2-phenylacetamido] -6,a-methoxypenicillanate] | – | – | – | – | – | – | 50 | 2.5 | 2.5 | 10
7 | CO[C@@]1(NC(=O)C(NC(=O)Nc2cnc(Nc3ccc(S(N)(=O)=O)cc3)nc2O)c2ccccc2F)C(=O)N2[C@@H](C(=O)O)C(C)(C)S[C@@H]21 (stereo partly drawn) [Example 7, Sodium 6,B-[D,L-2-[3-[2-(4-aminosulphonylphenylamino) -4-hydroxypyrimidin-5-yl]ureido]-2-(2-fluorophenyl)acetamido]-6,a-methoxypenicillanate] | 1 | 16 | 0.25 | 1 | 16 | – | – | – | – | –
8 | CO[C@@]1(NC(=O)C(NC(=O)Nc2cnc(Nc3ccc(S(N)(=O)=O)cc3)nc2O)c2ccc(F)cc2)C(=O)N2[C@@H](C(=O)O)C(C)(C)S[C@@H]21 (stereo partly drawn) [Example 8, Sodium 6,B-[D,L-2-[3-[2-(4-aminosulphonylphenylamino)-4-hydroxy-pyrimidin-5-yl]ureido]-2-(4-fluorophenyl)-acetamido]-6,a-methoxypenicillanic.] | 16 | 128 | 8 | 8 | 64 | – | – | – | – | –
